# Reference: patent US20210403874A1, “Method for Producing Stem/Precursor Cells, By Using Low Molecular Weight Compound, From Cells Derived From Endodermal Tissue or Organ” (Evia Life Sciences Inc., priority 2018, published 2021)
# Tested on: pancreatic progenitor cells
# Test: Induction of differentiation from pancreatic progenitor cells into insulin-producing cells (floating culture)
# Format: cell-based
# Details: floating culture 7 days in the presence of YAC together with ALK5 inhibitor II, versus YAC; FIG. 6
# Protocol: Total RNA was isolated from the pancreatic exocrine cells and PSC cells using miRNeasy Mini Kit (QIAGEN). Reverse transcription reaction was carried out using High-Capacity cDNA Reverse Transcription Kit (Life Technologies) following the manufacturer's guideline. The resulting cDNA was used as a template to perform PCR with Platinum SYBR Green qPCR SuperMix UDG (Invitrogen). The expression level of the target gene was normalized with β-actin as the endogenous control.
# The cells were fixed with 4% paraformaldehyde for 15 minutes. The resultant was incubated with a blocking solution (Blocking One) (Nacalai Tesque, Kyoto) at 4° C. for 30 minutes, and then the cells were incubated with primary antibody at room temperature for an hour or at 4° C. overnight. Then, Alexa Fluor 488- or Alexa Fluor 594-labeled secondary antibody (Life Technologies) was used to detect the primary antibody. The nuclei were co-stained with Hoechst 33342 (Dojindo).
# The cells were suspended in 5% FBS-containing SHM+YAC (cell density: 1×10^4 to 1×10^6 cells/cm') and cultured on an ultra-low adsorption culture dish for 7 days. The medium was exchanged on the fourth day.
compound,measurement,value
Cc1cccc(-c2[nH]ncc2-c2ccc3ncccc3n2)n1 [ALK5 inhibitor II],mRNA expression of Insulin and GLUT2,further improvements
